The values that follow come from BindingDB's records for patent US12071425 (Genentech, 2024).

T1 sequence (O75460 19-977 D688N limits assumed): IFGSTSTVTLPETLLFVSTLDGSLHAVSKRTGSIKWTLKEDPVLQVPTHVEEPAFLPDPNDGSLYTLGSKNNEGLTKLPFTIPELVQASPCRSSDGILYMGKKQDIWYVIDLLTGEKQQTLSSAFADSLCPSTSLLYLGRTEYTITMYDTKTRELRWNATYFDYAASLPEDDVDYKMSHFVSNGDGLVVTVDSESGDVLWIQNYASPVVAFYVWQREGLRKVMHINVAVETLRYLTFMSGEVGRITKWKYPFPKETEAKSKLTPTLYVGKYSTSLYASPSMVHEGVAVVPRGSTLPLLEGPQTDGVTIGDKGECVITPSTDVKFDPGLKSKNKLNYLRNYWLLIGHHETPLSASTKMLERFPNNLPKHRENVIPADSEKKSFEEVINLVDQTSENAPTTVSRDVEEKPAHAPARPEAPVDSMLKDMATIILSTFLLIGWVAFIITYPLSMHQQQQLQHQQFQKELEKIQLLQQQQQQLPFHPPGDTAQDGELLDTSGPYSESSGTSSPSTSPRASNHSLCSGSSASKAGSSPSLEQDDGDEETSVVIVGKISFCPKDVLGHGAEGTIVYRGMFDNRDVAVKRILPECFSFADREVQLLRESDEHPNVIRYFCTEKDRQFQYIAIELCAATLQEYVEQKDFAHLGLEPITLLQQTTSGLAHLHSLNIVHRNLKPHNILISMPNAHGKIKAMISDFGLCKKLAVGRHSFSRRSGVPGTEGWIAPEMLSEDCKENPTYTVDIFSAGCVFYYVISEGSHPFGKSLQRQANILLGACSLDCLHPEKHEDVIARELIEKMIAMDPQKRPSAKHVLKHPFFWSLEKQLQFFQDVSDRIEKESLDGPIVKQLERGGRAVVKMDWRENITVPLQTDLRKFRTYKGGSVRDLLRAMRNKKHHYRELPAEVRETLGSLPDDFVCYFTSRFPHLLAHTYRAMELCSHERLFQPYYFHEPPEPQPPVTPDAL

This assay has as its target T1, Serine/threonine-protein kinase/endoribonuclease IRE1 [D688N] (Homo sapiens, UniProt O75460, D688N).
T1 construct: gene ERN1
Briefly: IRE1α TR-FRET Competition Binding Assay. The procedure: To determine the affinity of compound binding to the kinase domain of IRE1 alpha, a Time Resolved Fluorescence Resonance Energy Transfer (TR-FRET) competition assay was used. A His-tagged IRE1 alpha kinase dead construct containing the kinase and RNase domains (KR, AA G547-L977, D688N) was expressed in Sf9 insect cells. The purified protein (final concentration 0.006 μM micromolar) was pre-incubated with anti-His Europium labeled antibody (Life Technologies PV5596, final concentration 0.002 μM micromolar) for one hour at 4° C. in 1X TR-FRET Assay Buffer (50 mM HEPES, pH 7.5.10 mM MgCl2, 0.083 mM Brij 35, 1 mM DTT, and 0.1% bovine gamma globulin) prior to addition to test compounds. A fluorescent labeled probe based on an ATP competitive inhibitor (Kinase Tracer 236, Life Technologies PV5592) is added to a final concentration of 0.1 μM (micromolar). Reactions were carried out for one hour at room temperature in a final volume of 20 μL (microliter) in 384 well white ProxiPlates (Perkin Elmer 6008289). Binding of the tracer to the IRE1 protein alpha was detected in an Envision instrument (PerkinElmer) equipped with a TRF laser option and a LANCE/Delfia Dual/Bias D400/D630 mirror (Ex 347 nm, 1st Em 665 nm, 2nd Em 615 nm).
On to `CN(C)[C@H]1CC[C@H](Nc2nccc(-c3cccnc3Oc3cc(F)c(NS(=O)(=O)CCC(F)(F)F)c(F)c3F)n2)CC1` [US12071425, Compound 382], for which the IC50 turned out to be 2 nM. In other words, the single-digit nanomolar range.

Consider `O=S(=O)(CC(F)(F)F)Nc1c(F)cc(Oc2ncccc2-c2ccnc(N[C@@H]3CNC[C@@H](F)C3)n2)c(F)c1F` [US12071425, Compound 260], for which the IC50 is 2.6 nM.

`O=S(=O)(Nc1ccc(Oc2ncccc2-c2ccnc(N[C@H]3CCCNC3)n2)c(F)c1F)c1ccccc1Cl` [US12071425, Compound 227] displayed an IC50 of 4.8 nM. Compared with the last compound, the IC50 is about 1.8-fold higher.
